Results taken from US20060229293A1, “Compositions for the treatment of hepatitis C and methods for using compositions for the treatment of hepatitis C” (Addiction Research Institute, Inc., priority 2005, published 2006).

Columns and labels:
Assay type in all cases: in vivo, human
[1] = system: HCV; assay: Case report, Example 1: HCV positive heroin user given ibogaine HCl; conditions: person, 25 mg/kg
Experimental: A person diagnosed as HCV positive and using ½ gram of heroin per day was administered 25 mg/kg of ibogaine HCl. Following the administration of ibogaine, heroin use ceased along with swelling of the liver and pain in the area of the liver.

[2] = system: HCV RNA genotype 3; assay: Case report, Example 4: HCV RNA after ibogaine HCl over 48 hours; conditions: total of 27 mg/kg over 48 hours
Experimental: A person weighing 160 lbs tested positive HCV RNA genotype 3. RNA IU/mL was 12,600,000. Subject was administered a total of 27 mg/kg of ibogaine HCl over a period of 48 hours in the following regimen: 2 mg/kg, 2 mg/kg, 2 mg/kg, 2 mg/kg, 2 mg/kg, 2 mg/kg, 12 mg/kg, and 3 mg/kg. HCV RNA IU/mL was reduced to 50,100. Prior to ibogaine therapy patient's urine was dark and stool light. Post treatment color of urine and stool were normal.

[3] = system: HCV RNA genotype 1; assay: Case report, Example 3: HCV RNA and liver enzymes after an escalating dose regimen of ibogaine HCl
Experimental: A person testing positive for HCV RNA genotype 1, administered the following dose regimen of ibogaine HCl. Subject weighed 79 kg. Doses administered were as total doses and not mg/kg. Day 1: 10 mg ibogaine HCl. Day 2: 20 mg ibogaine HCl. Day 3: 20 mg ibogaine HCl. Day 4: 30 mg ibogaine HCl. Day 5: 50 mg ibogaine HCl. Day 6: 75 mg ibogaine HCl. Day 8: 100 mg ibogaine HCl. Day 10: 150 mg ibogaine HCl. Day 14: 300 mg ibogaine HCl. HCV RNA IU/mL was reduced from 780,000 to 644,000. Pretreatment Alkaline Phosphatase was 99, AST was 103 and ALT 195. Post treatment Alkaline Phosphatase 88, AST 89 and ALT 127. An additional 250 mg of ibogaine HCl further reduced HCV RNA IU/mL to 384,000. A final dose within this regimen of 250 mg ibogaine was administered reducing the HCV RNA IU/mL to 154,000.

[4] = system: HCV; assay: Case report, Example 2: liver enzyme levels in HCV positive after ibogaine HCl; conditions: person, 14 mg/kg self-administered
Experimental: A person testing positive for HCV and dependent on heroin and methadone self-administered 14 mg/kg of ibogaine HCl. AST was reduced from pretreatment level of 201 to post treatment level of 25. ALT was reduced from pretreatment level of 410 to post treatment level of 50. GGT level was reduced from 155 to 33.

ibogaine HCl
pain in the area of the liver following administration [1]: ceased | swelling of the liver following administration [1]: ceased | heroin use following administration ([1]; using ½ gram of heroin per day): ceased | HCV RNA after treatment ([2]; person, 160 lbs, genotype 3, before treatment 12,600,000): 50,100 IU/mL | color of urine and stool post treatment ([2]; prior to therapy urine dark and stool light): normal | HCV RNA after an additional dose ([3]; additional 250 mg after the Day 1-14 regimen, previous level 644,000): 384,000 IU/mL | HCV RNA after the final dose ([3]; final dose of 250 mg within the regimen, previous level 384,000): 154,000 IU/mL | HCV RNA after regimen ([3]; person, 79 kg, genotype 1, total doses 10-300 mg on Days 1-14, reduced from 780,000): 644,000 IU/mL | Alkaline Phosphatase post treatment ([3]; person, genotype 1, Day 1-14 regimen, pretreatment 99): 88 | AST post treatment ([3]; person, genotype 1, Day 1-14 regimen, pretreatment 103): 89 | ALT post treatment ([3]; person, genotype 1, Day 1-14 regimen, pretreatment 195): 127 | AST post treatment level ([4]; pretreatment level 201): 25 | ALT post treatment level ([4]; pretreatment level 410): 50 | GGT level post treatment ([4]; reduced from 155): 33
